Calls of active or inactive are those of the source.
Assays:
[1] = Luminescence Cell-Based Dose Response HTS to Identify Inhibitors of 5'UTR Stem-Loop Driven Prion Protein mRNA Translation in H4 Neuroglioblastoma Cells. [Related pubchem assays: 1827 (Project Summary), 1813 (Primary HTS)]; format: functional
[2] = alpha-synuclein stem-loop luciferase translation blockers – H4 neuroglioma cells, luminescence, confirmation (AID 1988); format: functional, cell-based
[3] = luciferase reporter signal suppression in cells – H4 neuroglioma cells, luminescence, dose response (AID 1990); format: functional, cell-based
[4] = Luminescence Cell-Based Dose Retest to Confirm Inhibitors of Cancer Stem Cells. [Related pubchem assays (depositor defined):AID2717, AID2721]; format: functional; details: Homo sapiens
Vero = assay: host cell viability loss, Vero E6 – synthesized analogs, cytotoxicity control for West Nile virus antiviral project, SAR follow-up (AID 2244); format: functional; details: Chlorocebus sabaeus
[5] = biological target: Scavenger receptor class B member 1 (Mus musculus, UniProt Q61009); assay: mouse SR-BI DiI-HDL uptake blockers – ldlA[mSR-BI] cells, fluorescence, cherry pick, dose response (AID 493194); format: functional, cell-based;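 further: cellular uptake of fluorescent DiI-labeled HDL measured as cell fluorescence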
Bcl-2-like protein 10 = Bcl-2-like protein 10 (Homo sapiens, UniProt Q9HD36); assay: Bcl-B/TR3 peptide binding disruption – biochemical, fluorescence polarization, FITC-TR3 peptide, selectivity assay for Bfl-1 inhibitor project, primary screen (AID 748);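 further: fluorescence polarization from a fluorescein-labelled TR3 peptide binding purified Bcl-B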
[6] = biological target: T1, Zinc finger protein mex-5 (Caenorhabditis elegans, UniProt Q9XUB2); assay: potency of MEX-5 RNA-binding blockers – biochemical, C. elegans, fluorescence polarization, dose response (AID 1960)
T1 sequence (Q9XUB2 whole entry): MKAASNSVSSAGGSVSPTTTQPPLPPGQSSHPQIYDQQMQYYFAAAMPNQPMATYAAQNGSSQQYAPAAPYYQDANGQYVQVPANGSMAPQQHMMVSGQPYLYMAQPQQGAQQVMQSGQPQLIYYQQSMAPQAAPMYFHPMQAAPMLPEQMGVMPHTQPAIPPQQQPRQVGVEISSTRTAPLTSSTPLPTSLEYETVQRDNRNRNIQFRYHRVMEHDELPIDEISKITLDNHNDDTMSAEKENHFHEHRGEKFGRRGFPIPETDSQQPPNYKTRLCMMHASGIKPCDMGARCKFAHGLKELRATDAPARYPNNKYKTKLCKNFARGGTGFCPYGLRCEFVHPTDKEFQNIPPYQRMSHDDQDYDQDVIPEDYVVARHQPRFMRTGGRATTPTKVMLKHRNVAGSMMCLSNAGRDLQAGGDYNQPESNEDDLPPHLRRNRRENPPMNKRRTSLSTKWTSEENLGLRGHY

[7] = biological target: T2, RNA-binding protein pos-1 (Caenorhabditis elegans, UniProt G5EF15); assay: disruptors of C. elegans POS-1 RNA interaction – biochemical, fluorescence polarization, dose response (AID 1964);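 further: purified POS-1 fused to maltose binding protein made in E. coli; potency of compounds blocking POS-1 binding to fluorescent RNA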
T2 sequence (G5EF15 whole entry): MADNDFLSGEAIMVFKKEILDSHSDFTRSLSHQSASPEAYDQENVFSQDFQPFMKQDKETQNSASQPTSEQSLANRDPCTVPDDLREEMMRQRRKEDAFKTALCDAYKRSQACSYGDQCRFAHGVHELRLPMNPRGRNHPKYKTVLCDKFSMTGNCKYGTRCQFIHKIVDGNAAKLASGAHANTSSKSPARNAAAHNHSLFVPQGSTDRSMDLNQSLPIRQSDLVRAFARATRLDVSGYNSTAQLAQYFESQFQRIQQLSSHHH

Protein Rev = Protein Rev (Human immunodeficiency virus type 1 group M subtype B (isolate HXB2)(HIV-1), UniProt P04618); assay: blockers of HIV Rev/RRE RNA complex – biochemical, fluorescence polarization, HIV-1, dose response (AID 434976); set-up: species or system Human immunodeficiency virus 1
[8] = biological target: Female germline-specific tumor suppressor gld-1 (Caenorhabditis elegans, UniProt Q17339); assay: blockers of GLD-1/TGE RNA complex formation – biochemical, fluorescence polarization, C. elegans, dose response (AID 2802);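 further: fluorescence polarization of labeled TGE RNA bound by purified gld-1 protein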
[9] = biological target: Kappa-type opioid receptor (Homo sapiens, UniProt P41145); assay: SAR analysis of small molecule agonists of the kappa opioid receptor via a luminescent beta-arrestin assay - Set 2. [Related pubchem assays (depositor defined):AID1777, AID1785, AID1786, AID1966, AID2133, AID2136, AID2284, AID449737]; format: functional
[10] = STAT3 activation with BCL3 mRNA and toxicity – cell-based, STAT1 reporter, BCL3 qPCR, cytotoxicity, late-stage follow-up, panel member Cytotoxicity (AID 2049)
[11] = biological target: Signal transducer and activator of transcription 3 (Homo sapiens, UniProt P40763); assay: STAT3 activation with BCL3 mRNA and toxicity – cell-based, […], BCL3 qPCR, cytotoxicity, late-stage follow-up, panel member STAT3 Activation (AID 2049)
HeLa = assay: viability loss in HeLa cells – cell-based, 24 h, cherry-picked samples, cytotoxicity control, dose response (AID 504726); format: functional; details: Homo sapiens;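 further: potency for cytotoxicity as loss of luminescence signal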
[12] = biological target: T3, Alkaline phosphatase, tissue-nonspecific isozyme (Homo sapiens, UniProt P05186)
T3 sequence (P05186 whole entry): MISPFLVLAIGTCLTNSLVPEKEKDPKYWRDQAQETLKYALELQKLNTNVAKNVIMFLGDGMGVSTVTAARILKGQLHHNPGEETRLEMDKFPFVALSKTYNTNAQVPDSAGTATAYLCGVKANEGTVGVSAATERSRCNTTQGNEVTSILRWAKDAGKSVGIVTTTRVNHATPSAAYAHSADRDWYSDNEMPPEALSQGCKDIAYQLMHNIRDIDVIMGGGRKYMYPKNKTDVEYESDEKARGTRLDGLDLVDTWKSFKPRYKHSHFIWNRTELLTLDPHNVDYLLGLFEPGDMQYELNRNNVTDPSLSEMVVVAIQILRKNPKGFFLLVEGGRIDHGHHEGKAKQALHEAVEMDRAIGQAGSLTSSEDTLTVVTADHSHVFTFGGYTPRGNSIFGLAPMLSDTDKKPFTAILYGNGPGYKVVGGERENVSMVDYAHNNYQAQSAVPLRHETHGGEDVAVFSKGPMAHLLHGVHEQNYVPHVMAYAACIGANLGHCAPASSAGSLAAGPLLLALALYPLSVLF

Chain of Signal transducer and activator of transcription 3 (P40763 whole entry): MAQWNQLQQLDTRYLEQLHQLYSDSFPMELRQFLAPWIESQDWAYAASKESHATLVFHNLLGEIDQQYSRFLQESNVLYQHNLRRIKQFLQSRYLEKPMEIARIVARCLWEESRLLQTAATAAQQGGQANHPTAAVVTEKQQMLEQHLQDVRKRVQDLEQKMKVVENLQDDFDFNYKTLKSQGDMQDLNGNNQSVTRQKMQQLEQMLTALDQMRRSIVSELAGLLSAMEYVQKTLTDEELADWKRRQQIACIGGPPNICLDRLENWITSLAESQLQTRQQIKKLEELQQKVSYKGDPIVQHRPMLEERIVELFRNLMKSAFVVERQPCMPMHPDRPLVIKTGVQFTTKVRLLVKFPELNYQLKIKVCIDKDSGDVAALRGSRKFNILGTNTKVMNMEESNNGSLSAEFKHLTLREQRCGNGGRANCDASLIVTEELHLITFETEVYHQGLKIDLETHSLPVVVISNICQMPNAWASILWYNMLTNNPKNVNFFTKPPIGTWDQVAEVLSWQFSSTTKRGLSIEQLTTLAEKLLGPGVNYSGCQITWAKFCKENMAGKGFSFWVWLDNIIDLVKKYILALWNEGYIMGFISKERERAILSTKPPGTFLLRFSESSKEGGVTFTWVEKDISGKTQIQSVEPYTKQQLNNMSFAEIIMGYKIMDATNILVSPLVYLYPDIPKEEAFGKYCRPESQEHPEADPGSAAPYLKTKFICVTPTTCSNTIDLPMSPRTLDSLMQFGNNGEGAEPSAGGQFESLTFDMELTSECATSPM
Chain of Kappa-type opioid receptor (P41145 whole entry): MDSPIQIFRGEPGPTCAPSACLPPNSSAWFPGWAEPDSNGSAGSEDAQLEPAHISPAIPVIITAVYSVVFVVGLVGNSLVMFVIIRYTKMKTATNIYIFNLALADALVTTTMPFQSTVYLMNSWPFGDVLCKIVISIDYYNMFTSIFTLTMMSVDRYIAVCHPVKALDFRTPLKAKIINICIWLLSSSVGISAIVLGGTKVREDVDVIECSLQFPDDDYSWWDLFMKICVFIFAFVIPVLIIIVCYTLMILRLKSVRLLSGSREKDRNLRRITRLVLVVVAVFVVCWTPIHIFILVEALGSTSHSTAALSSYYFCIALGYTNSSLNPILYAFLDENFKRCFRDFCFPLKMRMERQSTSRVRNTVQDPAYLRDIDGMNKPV
Chain of Bcl-2-like protein 10 (Q9HD36 whole entry): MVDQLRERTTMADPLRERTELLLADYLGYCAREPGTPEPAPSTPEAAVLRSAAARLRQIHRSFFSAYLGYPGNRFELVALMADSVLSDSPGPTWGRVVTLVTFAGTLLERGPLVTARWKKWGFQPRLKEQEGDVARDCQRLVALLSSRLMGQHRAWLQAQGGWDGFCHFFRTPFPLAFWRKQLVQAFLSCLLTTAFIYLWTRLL
Chain of Female germline-specific tumor suppressor gld-1 (Q17339 whole entry): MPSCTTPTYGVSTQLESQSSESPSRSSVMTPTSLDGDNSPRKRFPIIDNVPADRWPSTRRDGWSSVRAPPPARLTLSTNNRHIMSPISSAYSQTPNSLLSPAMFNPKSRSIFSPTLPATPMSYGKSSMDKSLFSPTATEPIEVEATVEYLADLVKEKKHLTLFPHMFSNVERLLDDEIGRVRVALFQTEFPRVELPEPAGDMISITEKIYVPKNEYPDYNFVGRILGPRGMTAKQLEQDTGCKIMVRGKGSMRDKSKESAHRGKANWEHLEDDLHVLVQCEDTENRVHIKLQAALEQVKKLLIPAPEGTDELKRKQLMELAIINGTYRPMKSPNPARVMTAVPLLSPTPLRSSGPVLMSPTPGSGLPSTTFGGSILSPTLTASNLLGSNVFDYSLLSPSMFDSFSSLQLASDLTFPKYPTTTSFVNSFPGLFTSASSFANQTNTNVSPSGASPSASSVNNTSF
Chain of Scavenger receptor class B member 1 (Q61009 whole entry): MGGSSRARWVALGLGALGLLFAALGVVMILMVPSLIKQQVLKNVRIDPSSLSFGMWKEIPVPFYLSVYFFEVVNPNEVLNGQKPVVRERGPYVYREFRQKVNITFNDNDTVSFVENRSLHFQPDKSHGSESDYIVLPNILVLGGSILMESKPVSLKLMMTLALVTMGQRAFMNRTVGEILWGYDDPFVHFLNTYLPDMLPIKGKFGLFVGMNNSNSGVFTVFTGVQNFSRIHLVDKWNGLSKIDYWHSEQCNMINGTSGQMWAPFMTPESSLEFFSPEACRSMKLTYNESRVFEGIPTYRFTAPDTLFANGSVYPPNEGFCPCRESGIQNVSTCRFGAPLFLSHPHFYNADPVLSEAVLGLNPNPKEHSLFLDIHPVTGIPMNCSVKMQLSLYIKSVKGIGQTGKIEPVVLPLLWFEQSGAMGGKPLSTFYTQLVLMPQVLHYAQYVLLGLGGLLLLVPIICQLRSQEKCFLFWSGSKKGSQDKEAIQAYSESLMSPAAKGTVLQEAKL
Chain of Protein Rev (P04618 whole entry): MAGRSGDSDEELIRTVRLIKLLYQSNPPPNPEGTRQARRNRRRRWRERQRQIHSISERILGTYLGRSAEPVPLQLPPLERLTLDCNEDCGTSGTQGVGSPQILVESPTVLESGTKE

## CCN(CC)CCCN=C(S)N1CCN(c2nc(-c3ccc(F)cc3)cs2)CC1
[1]
  EC50: > 120 µM (not active)
[2]
  EC50: > 120 µM (not active)
[3]
  EC50: > 120 µM (not active)
[4]
  AC50: 1 µM (active)
Vero
  CC50: 13.3 µM (active)

## COc1ccc(OC)c(Nc2ccc(Nc3cc(OC)ccc3OC)nn2)c1
[5]
  AC50: 19.8 µM (active)

## COc1cc(CC(=O)OCC(=O)Nc2ncc(Cl)cc2Cl)cc(OC)c1OC
Bcl-2-like protein 10
  IC50: 68.3 µM (inactive)

## COC(=O)[C@@]1(C#N)[C@@H]2C=CC(C(C)=O)=CN2[C@@H](C(N)=O)[C@@H]1c1ccc(F)cc1
[6]
  EC50: 11.4 µM (active)
[7]
  EC50: 4.6 µM (active)
Protein Rev
  IC50: 18.3 µM (not active)
[8]
  IC50: 15.1 µM (inactive)

## O=C(CN(Cc1cccs1)C(=O)c1ccccn1)NC1CCCCC1
[9]
  EC50: > 20 µM (inactive)

## COc1cc(NC(=O)c2cc(C3CC3)on2)c(OC)cc1Cl
[10]
  CC50: > 55.7 µM (inactive)
[11]
  EC50: 0.00219 µM (active)

## Cn1c(N)c(C(=O)COC(=O)c2ccc(Cl)c(S(=O)(=O)N3CCCC3)c2)c(=O)n(C)c1=O
HeLa
  AC50: 68.1 µM (active)

## CCN(CC)c1ccc(NC(=O)Cn2c(C(C)NC(=O)c3ccc(C)cc3)nc3ccccc32)cc1 (stereo unspecified)
[12]
  EC50: > 100 µM (not active)

Source: ChEMBL document CHEMBL1201862, “PubChem BioAssay data set” (2004)
